Measured values taken from ChEMBL document CHEMBL1201862, “PubChem BioAssay data set” (2004).
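Dose response: 5 concentrations. Exposure: 48 h. Format: 96-well plates. Endpoint: linear interpolation; highest concentration if not reached. GI50 is the concentration that inhibits growth by half.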 Activity calls are given as the source filed them. Cut-off read from the data, not from the text of the source: active = GI50 up to about 1.1 µM and inactive = higher.

Key:
Experiment in all cases: inhibition of tumour cell growth, NCI panel, 48 h
A498 = test system: A498
CAKI-1 = test system: CAKI-1
CCRF-CEM = test system: CCRF-CEM
HOP-92 = test system: HOP-92
HT-29 = test system: HT-29
K562 = test system: K562
LOX IMVI = test system: LOX IMVI
M14 = test system: M14
OVCAR-4 = test system: OVCAR-4
SK-MEL-5 = test system: SK-MEL-5
SK-OV-3 = test system: SK-OV-3
SNB-19 = test system: SNB-19
SNB-78 = test system: SNB-78
SR = test system: SR
SW-620 = test system: SW-620
U-251 = test system: U-251
BT-549 = test system: BT-549
DU-145 = test system: DU-145
T47D = test system: T47D
NCI/ADR-RES = test system: NCI/ADR-RES

Structure (SMILES) | GI50 (A498) | GI50 (CAKI-1) | GI50 (CCRF-CEM) | GI50 (HOP-92) | GI50 (HT-29) | GI50 (K562) | GI50 (LOX IMVI) | GI50 (M14) | GI50 (OVCAR-4) | GI50 (SK-MEL-5) | GI50 (SK-OV-3) | GI50 (SNB-19) | GI50 (SNB-78) | GI50 (SR) | GI50 (SW-620) | GI50 (U-251) | GI50 (BT-549) | GI50 (DU-145) | GI50 (T47D) | GI50 (NCI/ADR-RES)
CN1C(c2ccccc2)CC(O)CC1c1ccccc1 (stereo not given) | > 100 µM (inactive) | > 100 µM (inactive) | > 100 µM (inactive) | > 100 µM (inactive) | > 100 µM (inactive) | > 100 µM (inactive) | > 100 µM (inactive) | > 100 µM (inactive) | > 100 µM (inactive) | > 100 µM (inactive) | > 100 µM (inactive) | > 100 µM (inactive) | > 100 µM (inactive) | > 100 µM (inactive) | > 100 µM (inactive) | > 100 µM (inactive) |  |  |  | 
On1c(-c2ccccc2)c(-c2ccccc2N2CCCC2)c2ccccc21 | > 100 µM (inactive) | > 100 µM (inactive) | > 100 µM (inactive) | > 100 µM (inactive) | > 100 µM (inactive) | > 100 µM (inactive) | > 100 µM (inactive) | > 100 µM (inactive) | > 100 µM (inactive) | > 100 µM (inactive) | > 100 µM (inactive) | > 100 µM (inactive) | > 100 µM (inactive) | > 100 µM (inactive) | > 100 µM (inactive) | > 100 µM (inactive) |  |  |  | 
C=CC1(CC)/C(=N\O)C(CC)(CC)C(=O)N1O (stereo not given) | > 100 µM (inactive) | > 100 µM (inactive) | > 100 µM (inactive) | 93.8 µM (inactive) | > 100 µM (inactive) | > 100 µM (inactive) | > 100 µM (inactive) | > 100 µM (inactive) | > 100 µM (inactive) | > 100 µM (inactive) | > 100 µM (inactive) | > 100 µM (inactive) | > 100 µM (inactive) | > 100 µM (inactive) | > 100 µM (inactive) | > 100 µM (inactive) |  |  |  | 
COc1cc(-c2[nH]ccc2Cl)oc1C1=C2N=C3C=C2C(C(C)C)C1CCCCCCCC3 (stereo not given) | 2.16 µM (inactive) | 2 µM (inactive) | 0.275 µM (active) | 1.69 µM (inactive) | 0.252 µM (active) | 0.403 µM (active) | 0.167 µM (active) | 0.438 µM (active) | 0.863 µM (active) | 0.321 µM (active) | 1.6 µM (inactive) | 1.69 µM (inactive) | 2.83 µM (inactive) | 0.292 µM (active) | 0.386 µM (active) | 0.711 µM (active) | 1.1 µM (active) | 0.614 µM (active) | 0.272 µM (active) | 
COc1cc([C@H]2c3cc4c(cc3O[C@@]3(O)COC(=O)[C@@H]23)OCO4)cc(OC)c1OC | > 100 µM (inactive) | > 100 µM (inactive) | > 100 µM (inactive) | > 100 µM (inactive) | > 100 µM (inactive) | > 100 µM (inactive) | > 100 µM (inactive) | > 100 µM (inactive) | > 100 µM (inactive) | > 100 µM (inactive) | > 100 µM (inactive) | > 100 µM (inactive) | > 100 µM (inactive) | > 100 µM (inactive) | > 100 µM (inactive) | > 100 µM (inactive) |  | > 100 µM (inactive) | > 100 µM (inactive) | > 100 µM (inactive)
O=c1c(NO)c([N+](=O)[O-])cnn1-c1ccccc1 | 20.6 µM (inactive) | 5.53 µM (inactive) | 0.971 µM (active) | 7.64 µM (inactive) | 2.6 µM (inactive) | 0.908 µM (active) | 1.79 µM (inactive) | 1.99 µM (inactive) | 3.81 µM (inactive) | 6 µM (inactive) | 7.01 µM (inactive) | 10.9 µM (inactive) | 16.9 µM (inactive) | 2.78 µM (inactive) | 1.75 µM (inactive) | 3.12 µM (inactive) | 1.58 µM (inactive) | 13.8 µM (inactive) | 1.83 µM (inactive) | 
